Results taken from ChEMBL document CHEMBL4251601 (Eur J Med Chem, 2018).
pIC50: −log10 of the molar value.

Legend:
[1] = target: Cyclin-dependent kinase 4/cyclin D1 (Homo sapiens, UniProt P11802); experiment: Inhibition of CDK4/Cyclin-D1 (unknown origin) using histone-H1 as substrate after 90 mins by ADP-Glo assay; assay type: protein-complex assay
[2] = AUC (0 to infinity) in Sprague-Dawley rat at 5 mg/kg, po administered as single dose by LC-MS/MS analysis; assay type: ADME, organism-based; set-up: dose 5 mg/kg, route oral, time infinity; details: Sprague-Dawley, in vivo
[3] = target: ALK tyrosine kinase receptor (Homo sapiens) (UniProt Q9UM73); experiment: Inhibition of recombinant N-terminal GST-tagged human ALK cytoplasmic domain (1058 to 1620 residues) expressed in baculovirus expression system at 0.1 uM by TR-FRET assay relative to control
[4] = target: Casein kinase II subunit alpha (Homo sapiens) (UniProt P68400); experiment: Inhibition of recombinant full length human His-tagged CK2alpha1 expressed in baculovirus expression system at 0.1 uM by Z'-Lyte assay relative to control
[5] = target: Dual specificity tyrosine-phosphorylation-regulated kinase 3 (Homo sapiens) (UniProt O43781); experiment: Inhibition of recombinant full length human GST-tagged DYRK3 expressed in baculovirus expression system at 0.1 uM by Z'-Lyte assay relative to control
[6] = test system: Epidermal growth factor receptor (Homo sapiens), P00533 [UNDEFINED MUTATION]; experiment: Inhibition of recombinant human EGFR d746 to 750 deletion/T790M mutant at 0.1 uM by TR-FRET assay relative to control
[7] = target: Ephrin type-A receptor 2 (Homo sapiens) (UniProt P29317); experiment: Inhibition of recombinant human GST-tagged EPHA2 cytoplasmic domain expressed in baculovirus expression system at 0.1 uM by Z'-Lyte assay relative to control
Chain of Ephrin type-A receptor 2 (Homo sapiens) (P29317 whole entry, the tested form may be a part): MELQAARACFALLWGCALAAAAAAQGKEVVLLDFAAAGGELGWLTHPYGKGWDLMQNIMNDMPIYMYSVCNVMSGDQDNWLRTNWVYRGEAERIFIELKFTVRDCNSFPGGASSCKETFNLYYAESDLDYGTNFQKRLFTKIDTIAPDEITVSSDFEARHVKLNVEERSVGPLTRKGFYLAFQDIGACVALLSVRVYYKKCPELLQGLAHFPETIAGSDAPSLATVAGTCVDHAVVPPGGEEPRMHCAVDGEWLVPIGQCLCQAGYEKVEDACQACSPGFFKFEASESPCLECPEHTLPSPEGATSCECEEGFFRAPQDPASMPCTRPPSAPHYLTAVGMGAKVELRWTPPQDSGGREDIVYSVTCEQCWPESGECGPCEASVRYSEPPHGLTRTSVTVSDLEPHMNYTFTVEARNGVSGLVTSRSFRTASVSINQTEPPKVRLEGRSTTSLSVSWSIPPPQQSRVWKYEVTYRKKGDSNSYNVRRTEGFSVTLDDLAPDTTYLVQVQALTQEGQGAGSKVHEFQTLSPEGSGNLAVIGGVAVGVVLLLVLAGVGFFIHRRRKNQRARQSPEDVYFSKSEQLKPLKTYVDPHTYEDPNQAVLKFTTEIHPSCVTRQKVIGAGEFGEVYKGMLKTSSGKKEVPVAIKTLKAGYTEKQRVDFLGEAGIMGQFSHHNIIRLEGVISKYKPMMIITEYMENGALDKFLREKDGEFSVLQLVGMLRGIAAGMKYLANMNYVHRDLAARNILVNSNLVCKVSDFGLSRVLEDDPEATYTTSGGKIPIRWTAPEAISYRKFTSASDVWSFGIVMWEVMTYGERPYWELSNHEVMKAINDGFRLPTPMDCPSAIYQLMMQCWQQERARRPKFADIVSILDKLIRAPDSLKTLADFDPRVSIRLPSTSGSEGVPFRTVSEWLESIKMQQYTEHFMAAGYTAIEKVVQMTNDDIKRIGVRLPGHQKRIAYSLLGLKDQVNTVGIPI

[8] = target: Ephrin type-B receptor 2 (Homo sapiens) (UniProt P29323); experiment: Inhibition of recombinant human GST-tagged EPHB2 cytoplasmic domain (616 to 884 residues) expressed in baculovirus expression system at 0.1 uM by Z'-Lyte assay relative to control
[9] = target: Tyrosine-protein kinase JAK1 (Homo sapiens) (UniProt P23458); experiment: Inhibition of recombinant human GST-tagged JAK1 expressed in baculovirus expression system at 0.1 uM by TR-FRET assay relative to control
[10] = target: Tyrosine-protein kinase Mer (Homo sapiens) (UniProt Q12866); experiment: Inhibition of recombinant human GST-tagged MERTK (578 to 872 residues) expressed in baculovirus expression system at 0.1 uM by Z'-Lyte assay relative to control
[11] = target: Mitogen-activated protein kinase kinase kinase 9 (Homo sapiens) (UniProt P80192); experiment: Inhibition of recombinant human GST-tagged MLK1 expressed in baculovirus expression system at 0.1 uM by Z'-Lyte assay relative to control
[12] = target: Platelet-derived growth factor receptor beta (Homo sapiens) (UniProt P09619); experiment: Inhibition of recombinant human His-tagged PDGFRbeta cytoplasmic domain expressed in baculovirus expression system at 0.1 uM by Z'-Lyte assay relative to control
[13] = target: 3-phosphoinositide-dependent protein kinase 1 (Homo sapiens) (UniProt O15530); experiment: Inhibition of recombinant human full length His-tagged PDK1 expressed in baculovirus expression system at 0.1 uM by Z'-Lyte assay relative to control
Chain of 3-phosphoinositide-dependent protein kinase 1 (Homo sapiens) (O15530 whole entry, canonical isoform): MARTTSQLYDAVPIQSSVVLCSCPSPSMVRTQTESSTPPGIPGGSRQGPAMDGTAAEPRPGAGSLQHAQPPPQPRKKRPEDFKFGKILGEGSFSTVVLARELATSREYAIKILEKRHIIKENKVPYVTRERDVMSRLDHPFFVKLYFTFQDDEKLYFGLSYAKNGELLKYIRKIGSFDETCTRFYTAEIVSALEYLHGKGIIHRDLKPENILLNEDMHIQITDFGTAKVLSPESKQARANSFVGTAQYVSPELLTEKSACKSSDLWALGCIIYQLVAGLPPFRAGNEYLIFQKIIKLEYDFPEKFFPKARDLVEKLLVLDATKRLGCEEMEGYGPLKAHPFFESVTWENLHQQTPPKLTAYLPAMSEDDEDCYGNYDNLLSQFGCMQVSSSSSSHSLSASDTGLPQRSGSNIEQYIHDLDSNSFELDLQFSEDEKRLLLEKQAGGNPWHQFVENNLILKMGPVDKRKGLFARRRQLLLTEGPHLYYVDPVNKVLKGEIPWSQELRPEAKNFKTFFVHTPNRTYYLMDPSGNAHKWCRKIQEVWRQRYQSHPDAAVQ

[14] = target: STE20-like serine/threonine-protein kinase (Homo sapiens) (UniProt Q9H2G2); experiment: Inhibition of recombinant human full length GST-tagged SLK expressed in baculovirus expression system at 0.1 uM by LanthaScreen assay relative to control
[15] = target: Proto-oncogene tyrosine-protein kinase Src (Homo sapiens) (UniProt P12931); experiment: Inhibition of recombinant human full length His-tagged SRC expressed in baculovirus expression system at 0.1 uM by Z'-Lyte assay relative to control
Chain of Proto-oncogene tyrosine-protein kinase Src (Homo sapiens) (P12931 2-536 limits assumed): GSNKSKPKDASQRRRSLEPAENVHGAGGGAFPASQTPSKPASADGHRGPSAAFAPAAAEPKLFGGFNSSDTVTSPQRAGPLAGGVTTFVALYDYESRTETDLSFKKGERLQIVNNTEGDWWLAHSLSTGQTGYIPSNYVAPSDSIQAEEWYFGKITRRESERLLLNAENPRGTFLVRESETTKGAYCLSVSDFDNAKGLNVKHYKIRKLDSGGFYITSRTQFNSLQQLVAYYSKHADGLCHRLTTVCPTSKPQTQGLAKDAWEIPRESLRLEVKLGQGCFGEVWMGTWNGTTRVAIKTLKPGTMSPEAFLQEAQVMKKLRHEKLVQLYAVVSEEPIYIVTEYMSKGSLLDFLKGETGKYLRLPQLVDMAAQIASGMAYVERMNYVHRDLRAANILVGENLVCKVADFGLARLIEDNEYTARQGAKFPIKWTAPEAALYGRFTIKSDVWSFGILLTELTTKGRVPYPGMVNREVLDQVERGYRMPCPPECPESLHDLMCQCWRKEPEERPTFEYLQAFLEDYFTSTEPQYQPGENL

[16] = test system: ALK tyrosine kinase receptor (Homo sapiens), Q9UM73 [C1156Y]; experiment: Inhibition of recombinant N-terminal GST-tagged human ALK cytoplasmic domain (1058 to 1620 residues) C1156Y mutant expressed in baculovirus expression system at 1 uM by TR-FRET assay relative to control
Chain of ALK tyrosine kinase receptor (Homo sapiens), Q9UM73 [C1156Y] (Q9UM73 whole entry C1156Y, looked up, the tested form may be a part): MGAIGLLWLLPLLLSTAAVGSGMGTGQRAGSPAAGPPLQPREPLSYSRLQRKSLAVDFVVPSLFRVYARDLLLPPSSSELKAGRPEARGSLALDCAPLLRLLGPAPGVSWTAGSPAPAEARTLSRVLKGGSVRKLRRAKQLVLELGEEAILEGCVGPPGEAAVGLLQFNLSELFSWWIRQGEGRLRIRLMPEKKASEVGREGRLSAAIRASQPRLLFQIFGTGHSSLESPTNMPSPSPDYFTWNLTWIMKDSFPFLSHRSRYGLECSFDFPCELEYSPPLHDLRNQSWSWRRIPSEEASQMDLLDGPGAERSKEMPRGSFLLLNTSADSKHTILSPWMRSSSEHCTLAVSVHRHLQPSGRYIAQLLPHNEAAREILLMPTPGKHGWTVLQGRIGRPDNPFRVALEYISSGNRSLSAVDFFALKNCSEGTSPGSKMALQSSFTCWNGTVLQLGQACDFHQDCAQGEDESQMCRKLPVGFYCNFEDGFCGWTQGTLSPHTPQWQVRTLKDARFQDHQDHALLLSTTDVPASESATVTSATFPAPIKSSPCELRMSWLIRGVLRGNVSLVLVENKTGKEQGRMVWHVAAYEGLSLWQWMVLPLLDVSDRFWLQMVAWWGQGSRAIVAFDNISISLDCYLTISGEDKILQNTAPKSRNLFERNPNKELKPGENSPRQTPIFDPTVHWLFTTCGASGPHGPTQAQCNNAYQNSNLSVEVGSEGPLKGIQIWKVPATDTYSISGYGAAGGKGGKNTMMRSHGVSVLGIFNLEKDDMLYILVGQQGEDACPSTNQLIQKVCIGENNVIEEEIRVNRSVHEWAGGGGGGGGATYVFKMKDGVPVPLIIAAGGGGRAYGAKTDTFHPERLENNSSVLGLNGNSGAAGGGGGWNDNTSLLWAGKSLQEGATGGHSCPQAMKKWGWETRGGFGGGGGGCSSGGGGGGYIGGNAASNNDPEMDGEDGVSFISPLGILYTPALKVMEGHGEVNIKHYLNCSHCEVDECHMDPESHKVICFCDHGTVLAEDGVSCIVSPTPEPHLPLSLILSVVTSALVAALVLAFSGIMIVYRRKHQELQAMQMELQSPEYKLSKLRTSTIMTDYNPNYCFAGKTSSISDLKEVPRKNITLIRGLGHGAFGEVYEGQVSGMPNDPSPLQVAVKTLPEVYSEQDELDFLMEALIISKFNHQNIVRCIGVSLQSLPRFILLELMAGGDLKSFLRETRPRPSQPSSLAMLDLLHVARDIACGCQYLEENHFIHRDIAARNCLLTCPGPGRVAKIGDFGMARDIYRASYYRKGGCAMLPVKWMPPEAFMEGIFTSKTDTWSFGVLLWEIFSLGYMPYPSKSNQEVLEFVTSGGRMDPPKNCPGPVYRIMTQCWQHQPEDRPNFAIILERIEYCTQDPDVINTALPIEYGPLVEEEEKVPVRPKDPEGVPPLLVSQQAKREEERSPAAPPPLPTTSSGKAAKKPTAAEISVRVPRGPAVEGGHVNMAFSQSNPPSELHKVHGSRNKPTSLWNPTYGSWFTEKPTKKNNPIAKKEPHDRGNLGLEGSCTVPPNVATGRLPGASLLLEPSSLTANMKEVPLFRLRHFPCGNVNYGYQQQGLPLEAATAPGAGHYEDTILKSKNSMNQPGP

[17] = target: Aurora kinase A (Homo sapiens) (UniProt O14965); experiment: Inhibition of recombinant full length human His-tagged AURKA expressed in baculovirus expression system at 1 uM by Z'-Lyte assay relative to control
[18] = target: Casein kinase I isoform alpha (Homo sapiens) (UniProt P48729); experiment: Inhibition of recombinant full length human GST-tagged CK1alpha expressed in baculovirus expression system at 1 uM by Z'-Lyte assay relative to control
[19] = target: Fibroblast growth factor receptor 1 (Homo sapiens) (UniProt P11362); experiment: Inhibition of recombinant human His-tagged FGFR1 cytoplasmic domain expressed in baculovirus expression system at 1 uM by Z'-Lyte assay relative to control
[20] = target: Mitogen-activated protein kinase kinase kinase 14 (Homo sapiens, UniProt Q99558); experiment: Inhibition of recombinant human GST-tagged NIK expressed in baculovirus expression system at 1 uM by Z'-Lyte assay relative to control
[21] = target: Serine/threonine-protein kinase PAK 1 (Homo sapiens) (UniProt Q13153); experiment: Inhibition of recombinant human full length GST-tagged PAK1 expressed in baculovirus expression system at 1 uM by Z'-Lyte assay relative to control
[22] = target: Serine/threonine-protein kinase PAK 2 (Homo sapiens) (UniProt Q13177); experiment: Inhibition of recombinant human full length GST-tagged PAK2 expressed in baculovirus expression system at 1 uM by Z'-Lyte assay relative to control
Chain of Serine/threonine-protein kinase PAK 2 (Homo sapiens) (Q13177 whole entry): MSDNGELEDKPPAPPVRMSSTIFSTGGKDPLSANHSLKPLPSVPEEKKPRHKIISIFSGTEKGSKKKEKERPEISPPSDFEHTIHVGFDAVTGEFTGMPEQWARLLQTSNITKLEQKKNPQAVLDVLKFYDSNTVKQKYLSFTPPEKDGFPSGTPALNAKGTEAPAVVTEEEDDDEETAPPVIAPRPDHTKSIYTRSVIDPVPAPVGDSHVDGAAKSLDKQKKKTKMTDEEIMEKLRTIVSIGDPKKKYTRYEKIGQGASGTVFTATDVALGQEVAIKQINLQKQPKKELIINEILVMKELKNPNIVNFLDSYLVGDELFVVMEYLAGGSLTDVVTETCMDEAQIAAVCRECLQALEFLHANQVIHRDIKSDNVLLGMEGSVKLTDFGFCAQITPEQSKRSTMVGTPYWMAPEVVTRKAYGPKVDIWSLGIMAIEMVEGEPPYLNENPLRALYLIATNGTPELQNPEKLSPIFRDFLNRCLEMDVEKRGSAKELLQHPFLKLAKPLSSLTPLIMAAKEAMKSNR

[23] = target: 3-phosphoinositide-dependent protein kinase 1 (Homo sapiens) (UniProt O15530); experiment: Inhibition of recombinant human full length His-tagged PDK1 expressed in baculovirus expression system at 1 uM by Z'-Lyte assay relative to control
[24] = target: Phosphatidylinositol 4,5-bisphosphate 3-kinase catalytic subunit gamma isoform (Homo sapiens) (UniProt P48736); experiment: Inhibition of PI3K gamma (unknown origin) at 1 uM by ADP-Glo assay relative to control
[25] = target: Angiopoietin-1 receptor (Homo sapiens) (UniProt Q02763); experiment: Inhibition of recombinant human GST-tagged TIE2 cytoplasmic domain expressed in baculovirus expression system at 1 uM by Z'-Lyte assay relative to control
[26] = target: Tyrosine-protein kinase receptor TYRO3 (Homo sapiens) (UniProt Q06418); experiment: Inhibition of recombinant human GST-tagged TYRO3 cytoplasmic domain (451 to 890 residues) expressed in baculovirus expression system at 1 uM by Z'-Lyte assay relative to control
Chain of Tyrosine-protein kinase receptor TYRO3 (Homo sapiens) (Q06418 whole entry, the tested form may be a part): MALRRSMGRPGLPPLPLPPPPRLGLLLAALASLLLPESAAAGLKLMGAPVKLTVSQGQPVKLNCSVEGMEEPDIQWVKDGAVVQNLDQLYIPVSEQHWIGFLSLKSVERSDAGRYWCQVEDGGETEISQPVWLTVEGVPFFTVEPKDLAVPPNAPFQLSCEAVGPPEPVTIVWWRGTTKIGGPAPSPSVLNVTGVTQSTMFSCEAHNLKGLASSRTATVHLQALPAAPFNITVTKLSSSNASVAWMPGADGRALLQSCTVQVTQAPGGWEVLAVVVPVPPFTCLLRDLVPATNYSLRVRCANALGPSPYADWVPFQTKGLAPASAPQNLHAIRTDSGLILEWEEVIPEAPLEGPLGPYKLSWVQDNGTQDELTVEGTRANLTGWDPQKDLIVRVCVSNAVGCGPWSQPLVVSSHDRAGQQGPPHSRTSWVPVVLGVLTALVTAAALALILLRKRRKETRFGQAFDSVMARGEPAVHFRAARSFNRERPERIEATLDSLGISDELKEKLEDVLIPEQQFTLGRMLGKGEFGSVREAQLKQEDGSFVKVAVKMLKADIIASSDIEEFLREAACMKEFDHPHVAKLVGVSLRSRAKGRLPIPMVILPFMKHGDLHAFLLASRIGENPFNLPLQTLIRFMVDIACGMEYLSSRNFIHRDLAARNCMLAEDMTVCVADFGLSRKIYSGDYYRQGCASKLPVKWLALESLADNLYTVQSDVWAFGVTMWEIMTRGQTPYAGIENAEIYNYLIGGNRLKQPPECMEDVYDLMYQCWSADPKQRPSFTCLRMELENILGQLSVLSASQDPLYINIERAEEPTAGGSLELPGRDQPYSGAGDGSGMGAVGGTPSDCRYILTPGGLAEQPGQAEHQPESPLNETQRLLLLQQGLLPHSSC

[27] = Half life in ICR mouse at 2 mg/kg, iv administered as single dose by LC-MS/MS analysis; assay type: ADME, organism-based; details: in vivo
[28] = Oral bioavailability in ICR mouse at 5 mg/kg administered as single dose by LC-MS/MS analysis; assay type: ADME, organism-based; details: in vivo
[29] = Tmax in CD-1 mouse plasma at 10 mg/kg, po administered as single dose by LC-MS/MS analysis; assay type: ADME, organism-based
[30] = Unbound AUC (0 to 24 hrs) in CD-1 mouse plasma at 10 mg/kg, po administered as single dose by LC-MS/MS analysis; assay type: ADME, organism-based; details: in vivo
U-87 MG = experiment: Antitumor activity against luciferase-fused human U87MG cells orthotopically xenografted in nude mouse assessed as increase in mouse life span at 50 mg/kg, po qd for 5 weeks relative to control; assay type: functional, U-87MG ATCC; details: 840 h

CC1=Nc2c(F)cc(-c3nc(Nc4ccc(C5CCN(C)CC5)cn4)ncc3F)cc2C12CCCC2 [CROZBACICLIB]
pIC50 [1]: 8.52 | AUC(0-inf) [2]: 1580 ng·h/mL | inhibition [3]: 7% | inhibition [4]: 5% | inhibition [5]: 29% | inhibition [6]: 26% | inhibition [7]: 6% | inhibition [8]: -8% | inhibition [9]: 7% | inhibition [10]: -1% | inhibition [11]: 0% | inhibition [12]: 4% | inhibition [13]: -3% | inhibition [14]: 11% | inhibition [15]: 3% | inhibition [16]: 28% | inhibition [17]: 6% | inhibition [18]: 5% | inhibition [19]: 13% | inhibition [20]: 105% | inhibition [21]: 28% | inhibition [22]: 10% | inhibition [23]: 4% | inhibition [24]: 19% | inhibition [25]: -2% | inhibition [26]: 4% | half-life [27]: 9.1 h | bioavailability [28]: 75% | Tmax [29]: 2 h | fAUC [30]: 63.45 ng·h/mL | ILS at 50 mg/kg (U-87 MG): 162%
